Where two headings read alike, the source gives them in different places.
Columns and labels:
OVCAR-3 cells = test: OVCAR-3 cell proliferation (Cell Titer-Glo, 10 days); format: cell-based, human
Procedure, shortened: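 400 cells per well were seeded onto pre-dispensed compound (final 0.12 nM to 10 μM) in RPMI-1640 with 20% FBS and insulin, then co-cultured for 10 days. Viability was read as Cell Titer-Glo luminescence, inhibition was taken against 0.1% DMSO control, and IC50 came from nonlinear concentration-inhibition regression.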

HT-29 cells = test: HT-29 cell proliferation (Cell Titer-Glo, 6 days); format: cell-based
Experimental: The inhibitory effect on the KIF18A target by the compounds of the present disclosure was evaluated by testing the inhibitory effect on proliferation of HT-29 cells by the compounds of the present disclosure.
HT-29 (ATCC, HTB-38) cells were cultured in McCoy's 5a complete medium (Gibco, 12330-031) containing 10% fetal bovine serum (Gibco, 10099-141C), 100 U penicillin and […] streptomycin (Gibco, 15140-122). The Promega kit Cell Titer-Glo (Promega: G7572) was used in this method for test. • 1. HT-29 cells were cultured in T75 cell flasks (Corning, 430641) and the medium was placed in a 37° C., 5% CO2 incubator. Cells were passaged when reaching a cell density of 70%-80%, approximately twice per week. • 2. To perform the experiment, the test compounds were dissolved in DMSO to prepare a 10 mM stock solution, and the test compounds were added to the 384-well cell test plate (Corning, 3765) at the predetermined concentration using ECHO. • 3. The cell culture flask was taken out, the medium was removed, and the cells were rinsed with PBS. Then 2 mL of trypsin (with 0.25% EDTA) was added, and the flask was placed in the incubator for digestion for 4 minutes. • 4. Digestion was stopped by adding 4 mL of complete medium and the cell suspension was transferred to a centrifuge tube and centrifuged at 1000 rpm for 4 minutes. • 5. The cells were resuspended in 6 mL of complete medium, followed by cell counting. The cell density was adjusted to 4,170 cells/mL, and the cells were added to a 384-well plate at 60 μL/well. • 6. The 384-well plate was centrifuged at 500 rpm for 1 minute, and then placed in a 37° C., 5% CO2 incubator for 6 days of cultivation. • 7. Six days later, the cell culture plate was equilibrated for 10 minutes at room temperature, 25 μL of Cell Titer-Glo was added to each well, and the mixture was shaken and mixed well and let stand for 5 minutes. The luminescence values for samples in various wells were read using a microplate reader in Luminescence mode.
(§1) The percentage of inhibition of cell proliferation by the test compound at each concentration was calculated by comparing with the values of the control group (0.3% DMSO). The IC50 values of the compounds were obtained by concentration-inhibition rate nonlinear regression analysis of the test compounds using GraphPad Prism 9.

HCT116 cells = test: HCT116 cell anti-proliferation assay; format: cell-based; details: 6 days, Cell Titer-Glo
Experimental: HCT116 (ATCC, CCL-247) cells were cultured in McCoy's 5a complete medium (Gibco, 12330-031) containing 10% fetal bovine serum (Gibco, 10099-141C), 100 U penicillin and 100 μg/mL streptomycin (Gibco, 15140-122). The Promega kit Cell Titer-Glo (Promega: G7572) was used in this method for test.
HCT116 cells were cultured in T75 cell flasks (Corning, 430641) and the cells were placed in a 37° C., 5% CO2 incubator. Cells were passaged when reaching a cell density of 70%-80%, approximately twice per week. To perform the experiment, the test compounds were dissolved in DMSO to prepare a 10 mM stock solution, and the test compounds were added to the 384-well cell test plate (Corning, 3765) at the predetermined concentration (19.5 nM-[…]) using ECHO. […] cells were digested and 150 cells (60 μL medium) were seeded per well in the test plate. The 384-well plate was then centrifuged at 500 rpm for 1 minute, and then placed in a 37° C., 5% CO2 incubator for 6 days of cultivation. Six days later, the cell culture plate was equilibrated for 10 minutes at room temperature, 25 μL of Cell Titer-Glo was added to each well, and the mixture was shaken and mixed well and let stand for 5 minutes. The luminescence values for samples in various wells were read using a microplate reader in Luminescence mode.
as §1, with “(0.2%” for “(0.3%”

SMILES | IC50 (OVCAR-3 cells) | IC50 (HT-29 cells; Homo sapiens, HT-29, 144 h) | IC50 (HCT116 cells) | IC50 (HT-29 cells) | IC50 (HCT116 cells; Homo sapiens, HCT-116, 144 h) | IC50 (OVCAR-3 cells; Homo sapiens, OVCAR-3, 240 h)
CC1Cn2c(cc3c(NC(=O)c4ccc(NS(=O)(=O)CCO)cc4N4CCC5(CC4)CC5)cccc32)C(C)O1 (single isomer, unassigned) [Compound 312-P2A, N-(1,3-dimethyl-3,4-dihydro-1H-[1,4]oxazino[4,3-a]indol-9-yl)-4-((2-hydroxyethyl)sulfonamido)-2-(6-azaspiro[2.5]oct-6-yl)benzamide] | ≤ 50 nM | ≤ 200 nM | 6700 nM |  |  | 
CC1Cn2c(cc3c(NC(=O)c4ccc(NS(=O)(=O)CCO)cc4N4CCC5(CC4)CC5)cccc32)C(C)O1 (single isomer, unassigned) [Compound 312-P3, N-(1,3-dimethyl-3,4-dihydro-1H-[1,4]oxazino[4,3-a]indol-9-yl)-4-((2-hydroxyethyl)sulfonamido)-2-(6-azaspiro[2.5]oct-6-yl)benzamide] | ≤ 50 nM |  |  | ≤ 200 nM | > 10000 nM | 
COC1c2cc3c(NC(=O)c4ccc(NS(=O)(=O)CCO)cc4N4CCC5(CC4)CC5)cccc3n2CCC1(F)F (single isomer, unassigned) [Example 340-P2] | ≤ 50 nM |  | 8500 nM | ≤ 200 nM |  | 
CC1(C)Cn2c(nc3c(NC(=O)c4ccc(NS(=O)(=O)CCO)cc4N4CCC5(CC4)CC5)cccc32)CO1 [Compound 391, N-(3,3-dimethyl-3,4-dihydro-1H-benzo[4,5]imidazo[2,1-c][1,4]oxazin-9-yl)-4-((2-hydroxyethyl)sulfonamido)-2-(6-azaspiro[2.5]octan-6-yl)benzamide] |  | ≤ 200 nM |  |  | > 10000 nM | ≤ 50 nM
CC1(C)Cn2c(cc3c(NC(=O)c4ccc(NS(=O)(=O)CCO)cc4N4CCC5(CC4)CC5)ccc(C#N)c32)CO1 [Compound 392, N-(6-cyano-3,3-dimethyl-3,4-dihydro-1H-[1,4]oxazino[4,3-a]indol-9-yl)-4-((2-hydroxyethyl)sulfonamido)-2-(6-azaspiro[2.5]oct-6-yl)benzamide] |  | ≤ 200 nM |  |  | > 10000 nM | ≤ 50 nM
CC1(C)Cn2c(cc3c(NC(=O)c4ccc(NS(=O)(=O)CCO)cc4N4CCC(=C(F)F)CC4)ccc(C#N)c32)CO1 [Compound 393, N-(6-cyano-3,3-dimethyl-3,4-dihydro-1H-[1,4]oxazino[4,3-a]indol-9-yl)-2-(4-(difluoromethylene)piperidin-1-yl)-4-((2-hydroxyethyl)sulfonamido)benzamide] |  | ≤ 200 nM |  |  | > 10000 nM | 50 to 500 nM
CC1(C)Cn2c(nc3c(NC(=O)c4ccc(NS(=O)(=O)CCO)cc4N4CCC(=C(F)F)CC4)cccc32)CO1 [Compound 394, 2-(4-(difluoromethylene)piperidin-1-yl)-N-(3,3-dimethyl-3,4-dihydro-1H-benzo[4,5]imidazo[2,1-c][1,4]oxazin-9-yl)-4-((2-hydroxyethyl)sulfonamido)benzamide] |  | ≤ 200 nM |  |  | > 10000 nM | ≤ 50 nM
CC1(C)OCCn2c1cc1c(NC(=O)c3ccc(NS(=O)(=O)CCO)cc3N3CCC(=C(F)F)CC3)cccc12 [Compound 395, 2-(4-(difluoromethylene)piperidin-1-yl)-N-(1,1-dimethyl-3,4-dihydro-1H-[1,4]oxazino[4,3-a]indol-9-yl)-4-((2-hydroxyethyl)sulfonamido)benzamide] |  | 200 to 1000 nM |  |  | > 10000 nM | 50 to 500 nM
O=C(Nc1cccc2c1cc1n2CC2CCC1O2)c1ccc(NS(=O)(=O)CCO)cc1N1CCC(=C(F)F)CC1 (centres unmarked) [Compound 398, 2-(4-(difluoromethylene)piperidin-1-yl)-4-((2-hydroxyethyl)sulfonamido)-N-(7,8,9,10-tetrahydro-6H-7,10-epoxyazeto[1,2-a]indol-1-yl)benzamide] | ≤ 50 nM |  | > 10000 nM |  |  | 
COc1ccc(NC(=O)c2ccc(NS(=O)(=O)CCO)cc2N2CCC(=C(F)F)CC2)c2cc3n(c12)CCOC3 [Compound 405, 2-(4-(difluoromethylene)piperidin-1-yl)-4-((2-hydroxyethyl)sulfonamido)-N-(6-methoxy-3,4-dihydro-1H-[1,4]oxazinyl[4,3-a]indol-9-yl)benzamide] | ≤ 50 nM |  | > 10000 nM | ≤ 200 nM |  | 
Nc1cc(NS(=O)(=O)CCO)cc(N2CCC3(CC2)CC3)c1C(=O)Nc1cccc(N2CCC(F)(F)CC2)c1 [Example 1, 2-amino-N-(3-(4,4-difluoropiperidin-1-yl)phenyl)-4-((2-hydroxyethyl)sulfonamide)-6-(6-azaspiro[2.5]octan-6-yl)benzamide] | ≤ 50 nM |  |  | ≤ 200 nM |  | 
CNc1cc(NS(=O)(=O)CCO)cc(N2CCC3(CC2)CC3)c1C(=O)Nc1cc(C)nc(N2CCC(F)(F)CC2)n1 [Example 4, N-(2-(4,4-difluoropiperidin-1-yl)-6-methylpyrimidin-4-yl)-4-(2-hydroxyethylsulfonamide)-2-methylamino-6-(6-azaspiro[2.5]octan-6-yl)benzamide] | ≤ 50 nM |  | 2600 nM | ≤ 200 nM |  | 
O=C(Nc1cccc2c1cc1n2CCOC1)c1ccc(NS(=O)(=O)CCO)cc1N1CCC2(CC1)CC2 [Example 235, N-(3,4-dihydro-1H-[1, 4]oxazino[4,3-a]indol-9-yl)-4-(2-hydroxyethylsulfonamido)-2-(6-azaspiro[2.5]octan-6-yl)benzamide] |  | ≤ 200 nM |  |  | > 10000 nM | ≤ 50 nM
O=C(Nc1ccc(F)c2c1nc1n2CCOC1)c1ccc(NS(=O)(=O)CCO)cc1N1CCC2(CC1)CC2 [Example 308, N-(6-fluoro-3,4-dihydro-1H-benzo[4,5]imidazo[2,1-c][1,4]oxazin-9-yl)-4-((2-hydroxyethyl)sulfonamido)-2-(6-azaspiro[2.5]octan-6-yl)benzamide] |  | ≤ 200 nM |  |  | > 10000 nM | ≤ 50 nM
N#Cc1ccc(NC(=O)c2ccc(NS(=O)(=O)CCO)cc2N2CCC3(CC2)CC3)c2cc3n(c12)CCOC3 [Example 310, N-(6-cyano-3,4-dihydro-1H-[1,4]oxazino[4,3-a]indol-9-yl)-4-((2-hydroxyethyl)sulfonamido)-2-(6-azaspiro[2.5]oct-6-yl)benzamide] |  | ≤ 200 nM |  |  | 9000 nM | ≤ 50 nM
O=C(Nc1cccc2c1cc1n2CCOC1)c1ccc(NS(=O)(=O)CCO)cc1N1CCC(=C(F)F)CC1 [Example 319, 2-(4-difluoromethylene)piperidin-1-yl-N-(3,4-dihydro-1H-[1,4]oxazino[4,3-a]indol-9-yl)-4-((2-hydroxyethyl)sulfonamide) benzamide] | ≤ 50 nM |  | > 10000 nM | 200 to 1000 nM |  | 
O=C(Nc1ccc(F)c2c1cc1n2CCOC1)c1ccc(NS(=O)(=O)CCO)cc1N1CCC(=C(F)F)CC1 [Example 321, 2-(4-(difluoromethylene)piperidin-1-yl)-N-(6-fluoro-3,4-dihydro-1H-[1,4]oxazino[4,3-a]indol-9-yl)-4-((2-hydroxyethyl)sulfonamido)benzamide] |  | 200 to 1000 nM |  |  | > 10000 nM | 50 to 500 nM
CC1(C)Cn2c(cc3c(NC(=O)c4ccc(NS(=O)(=O)CCO)cc4N4CCC5(CC4)CC5)ccc(OC(F)F)c32)CO1 [Example 523] | ≤ 50 nM |  |  |  |  | 

From patent US20260070887A1 (Shenzhen Zhongge Biological Technology Co., Ltd., priority 2022, published 2026)
